According to ChEMBL document CHEMBL1201862, “PubChem BioAssay data set” (2004):
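Results reflect a 48-hour exposure of cells in 96-well plates to compound at five concentrations. The concentration for 50% growth inhibition is given as GI50.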 Active and inactive are the calls of the source. Rule as the data show it: active = GI50 up to about 1.1 µM and inactive = higher.

Tests used:
Test in all cases: DTP human tumour cell line panel, 48 h
HOP-92 = test system: HOP-92
RPMI-8226 = test system: RPMI-8226
RXF 393 = test system: RXF 393
DU-145 = test system: DU-145
OVCAR-5 = test system: OVCAR-5
SR = test system: SR
LOX IMVI = test system: LOX IMVI
NCI-H522 = test system: NCI-H522
BT-549 = test system: BT-549
SK-OV-3 = test system: SK-OV-3
Hs-578T = test system: Hs-578T
KM12 = test system: KM12
EKVX = test system: EKVX
HL-60 = test system: HL-60
SN12C = test system: SN12C
CCRF-CEM = test system: CCRF-CEM
OVCAR-3 = test system: OVCAR-3
MDA-MB-435 = test system: MDA-MB-435
HCT-116 = test system: HCT-116
K562 = test system: K562

SMILES	GI50 (HOP-92)	GI50 (RPMI-8226)	GI50 (RXF 393)	GI50 (DU-145)	GI50 (OVCAR-5)	GI50 (SR)	GI50 (LOX IMVI)	GI50 (NCI-H522)	GI50 (BT-549)	GI50 (SK-OV-3)	GI50 (Hs-578T)	GI50 (KM12)	GI50 (EKVX)	GI50 (HL-60)	GI50 (SN12C)	GI50 (CCRF-CEM)	GI50 (OVCAR-3)	GI50 (MDA-MB-435)	GI50 (HCT-116)	GI50 (K562)
COC1(CC[C@H](C)COC2OC(CO)C(O)C(O)C2O)O[C@H]2C[C@H]3[C@@H]4CC=C5C[C@@H](OC6OC(CO)C(OC7OC(C)C(O)C(O)C7O)C(O)C6OC6OC(C)C(O)C(O)C6O)CC[C@]5(C)[C@H]4CC[C@]3(C)[C@H]2[C@@H]1C (stereo partly drawn)	1.9 µM (inactive)	2.32 µM (inactive)	4.57 µM (inactive)	2.42 µM (inactive)	4.2 µM (inactive)	> 100 µM (inactive)	1.9 µM (inactive)	2.31 µM (inactive)	4.88 µM (inactive)	2.82 µM (inactive)	1.9 µM (inactive)	2.47 µM (inactive)	19.5 µM (inactive)	8.55 µM (inactive)	7.76 µM (inactive)	11.1 µM (inactive)	6.1 µM (inactive)	1.77 µM (inactive)	–	–
NC(=O)NC(=O)c1cccc(NC(=O)CF)c1	> 100 µM (inactive)	> 100 µM (inactive)	> 100 µM (inactive)	> 100 µM (inactive)	> 100 µM (inactive)	> 100 µM (inactive)	> 100 µM (inactive)	> 100 µM (inactive)	> 100 µM (inactive)	> 100 µM (inactive)	> 100 µM (inactive)	> 100 µM (inactive)	> 100 µM (inactive)	> 100 µM (inactive)	> 100 µM (inactive)	> 100 µM (inactive)	> 100 µM (inactive)	> 100 µM (inactive)	> 100 µM (inactive)	> 100 µM (inactive)
O=[N+]([O-])/C=C/c1cc(Cl)c(/C=C/[N+](=O)[O-])cc1Cl	2.55 µM (inactive)	1.25 µM (inactive)	1.46 µM (inactive)	2.51 µM (inactive)	1.52 µM (inactive)	0.225 µM (active)	1.53 µM (inactive)	0.975 µM (active)	1.57 µM (inactive)	35.6 µM (inactive)	2.91 µM (inactive)	3.03 µM (inactive)	1.91 µM (inactive)	0.205 µM (active)	1.8 µM (inactive)	0.8 µM (active)	1.97 µM (inactive)	1.82 µM (inactive)	1.12 µM (active)	–
CCOC(=O)c1cc(C)n(CN(CCO)Cn2nc(C(=O)OCC)cc2C)n1	24.8 µM (inactive)	19.9 µM (inactive)	19.3 µM (inactive)	25.5 µM (inactive)	19.5 µM (inactive)	28.6 µM (inactive)	27.5 µM (inactive)	22.6 µM (inactive)	27.5 µM (inactive)	> 100 µM (inactive)	97.7 µM (inactive)	31.6 µM (inactive)	34.2 µM (inactive)	34.2 µM (inactive)	27.4 µM (inactive)	18.8 µM (inactive)	26 µM (inactive)	39.7 µM (inactive)	18.3 µM (inactive)	26.9 µM (inactive)
Cc1ccc(/N=C2\C(=O)C3=C(OC(C)(C)CC3)c3ccccc32)cc1	1.77 µM (inactive)	0.232 µM (active)	1.71 µM (inactive)	1.31 µM (inactive)	1.51 µM (inactive)	0.275 µM (active)	0.269 µM (active)	1.25 µM (inactive)	1.33 µM (inactive)	1.57 µM (inactive)	2.82 µM (inactive)	1.52 µM (inactive)	1.81 µM (inactive)	0.227 µM (active)	0.505 µM (active)	2.04 µM (inactive)	0.151 µM (active)	0.183 µM (active)	0.292 µM (active)	0.197 µM (active)
N#C/C(=C\c1ccccc1)c1nc(-c2cc3ccccc3oc2=O)cs1	32.1 µM (inactive)	> 100 µM (inactive)	> 100 µM (inactive)	> 100 µM (inactive)	> 100 µM (inactive)	> 100 µM (inactive)	> 100 µM (inactive)	> 100 µM (inactive)	27.3 µM (inactive)	72.8 µM (inactive)	48 µM (inactive)	75.3 µM (inactive)	71.3 µM (inactive)	> 100 µM (inactive)	> 100 µM (inactive)	> 100 µM (inactive)	–	> 100 µM (inactive)	> 100 µM (inactive)	> 100 µM (inactive)
CC(=O)OC(CN1CCN(c2ccccn2)CC1)Cn1sc2nc(C)cc(C)c2c1=O (stereo not drawn)	48.3 µM (inactive)	5.12 µM (inactive)	20.2 µM (inactive)	19 µM (inactive)	17.5 µM (inactive)	4.61 µM (inactive)	21.3 µM (inactive)	7.03 µM (inactive)	18.6 µM (inactive)	17.9 µM (inactive)	20.7 µM (inactive)	21.4 µM (inactive)	17.3 µM (inactive)	16.8 µM (inactive)	18.9 µM (inactive)	5.78 µM (inactive)	21.2 µM (inactive)	16.9 µM (inactive)	16.3 µM (inactive)	32.7 µM (inactive)
CCC1(O)C(=O)OCc2c1cc1n(c2=O)Cc2cc3cc4c(cc3nc2-1)OCO4 (stereo not drawn)	0.0191 µM (active)	0.0236 µM (active)	< 0.01 µM (active)	< 0.01 µM (active)	0.0327 µM (active)	< 0.215 µM (active)	< 0.01 µM (active)	< 0.01 µM (active)	0.0163 µM (active)	0.0102 µM (active)	0.857 µM (active)	–	0.0776 µM (active)	< 0.01 µM (active)	< 0.01 µM (active)	< 0.01 µM (active)	0.0466 µM (active)	< 0.0131 µM (active)	< 0.01 µM (active)	0.0142 µM (active)
CCOC(=O)NC(OC)(C(F)(F)F)C(F)(F)F	> 100 µM (inactive)	> 100 µM (inactive)	> 100 µM (inactive)	> 100 µM (inactive)	–	> 100 µM (inactive)	> 100 µM (inactive)	> 100 µM (inactive)	> 100 µM (inactive)	46.9 µM (inactive)	> 100 µM (inactive)	–	> 100 µM (inactive)	> 100 µM (inactive)	–	> 100 µM (inactive)	> 100 µM (inactive)	> 100 µM (inactive)	> 100 µM (inactive)	> 100 µM (inactive)
COc1cc2c(c3oc4c(O)cccc4c(=O)c13)CC(C(C)(O)CO)O2 (stereo not drawn)	37.2 µM (inactive)	> 100 µM (inactive)	7.74 µM (inactive)	> 100 µM (inactive)	> 100 µM (inactive)	34.1 µM (inactive)	25 µM (inactive)	35.1 µM (inactive)	34.5 µM (inactive)	–	44.3 µM (inactive)	–	> 100 µM (inactive)	83.2 µM (inactive)	60.1 µM (inactive)	21.3 µM (inactive)	> 100 µM (inactive)	> 100 µM (inactive)	40.6 µM (inactive)	55.6 µM (inactive)
C/C(=N\NC(=O)/C(C#N)=C\c1ccc(N(CCC#N)CCC#N)cc1)c1ccccc1	> 10 µM (inactive)	> 10 µM (inactive)	> 10 µM (inactive)	> 10 µM (inactive)	–	> 10 µM (inactive)	> 10 µM (inactive)	> 10 µM (inactive)	> 10 µM (inactive)	> 10 µM (inactive)	> 10 µM (inactive)	> 10 µM (inactive)	> 10 µM (inactive)	> 10 µM (inactive)	> 10 µM (inactive)	–	–	> 10 µM (inactive)	> 10 µM (inactive)	–
CC(C)(C)C(=O)OCOP(=O)(OCOC(=O)C(C)(C)C)OCC1OC(n2ccc(=O)[nH]c2=O)C(N=[N+]=[N-])C1O (stereo not drawn)	1.82 µM (inactive)	1.62 µM (inactive)	2.3 µM (inactive)	4.94 µM (inactive)	5.28 µM (inactive)	2.2 µM (inactive)	1.59 µM (inactive)	4.92 µM (inactive)	3.91 µM (inactive)	–	0.804 µM (active)	3.11 µM (inactive)	7.59 µM (inactive)	2.14 µM (inactive)	10.3 µM (inactive)	2.53 µM (inactive)	0.4 µM (active)	3.71 µM (inactive)	3.22 µM (inactive)	19.1 µM (inactive)
C=CCON(C(=O)OC(C)(C)C)C(C)(C)C	> 100 µM (inactive)	> 100 µM (inactive)	> 100 µM (inactive)	> 100 µM (inactive)	> 100 µM (inactive)	> 100 µM (inactive)	> 100 µM (inactive)	> 100 µM (inactive)	> 100 µM (inactive)	> 100 µM (inactive)	> 100 µM (inactive)	> 100 µM (inactive)	> 100 µM (inactive)	> 100 µM (inactive)	–	> 100 µM (inactive)	> 100 µM (inactive)	> 100 µM (inactive)	> 100 µM (inactive)	> 100 µM (inactive)
Cc1cc(O)c(C(C)C)cc1C1(c2cc(C(C)C)c(O)cc2C)OC(=O)c2ccccc21	1.92 µM (inactive)	1.21 µM (inactive)	1.47 µM (inactive)	2.07 µM (inactive)	2.38 µM (inactive)	1.36 µM (inactive)	1.78 µM (inactive)	1.84 µM (inactive)	2.24 µM (inactive)	4.47 µM (inactive)	2.14 µM (inactive)	1.75 µM (inactive)	2.99 µM (inactive)	0.415 µM (active)	2.02 µM (inactive)	–	2.06 µM (inactive)	1.63 µM (inactive)	1.67 µM (inactive)	1.19 µM (inactive)
